Results as given in BindingDB's records for doi:10.1046/j.1472-8206.2002.00076.x (Shinshu University, 2002).
Side chains are listed from the residue outwards. Peptide text beside a SMILES is read from it. * marks the point of attachment. Nicotinoyl = O=C(c1cccnc1)*; Cbz = O=C(OCc1ccccc1)*

Assays:
[1] = molecular target: T1, Type-1 angiotensin II receptor A (Rattus norvegicus, UniProt P25095)
T1 sequence (P25095 whole entry): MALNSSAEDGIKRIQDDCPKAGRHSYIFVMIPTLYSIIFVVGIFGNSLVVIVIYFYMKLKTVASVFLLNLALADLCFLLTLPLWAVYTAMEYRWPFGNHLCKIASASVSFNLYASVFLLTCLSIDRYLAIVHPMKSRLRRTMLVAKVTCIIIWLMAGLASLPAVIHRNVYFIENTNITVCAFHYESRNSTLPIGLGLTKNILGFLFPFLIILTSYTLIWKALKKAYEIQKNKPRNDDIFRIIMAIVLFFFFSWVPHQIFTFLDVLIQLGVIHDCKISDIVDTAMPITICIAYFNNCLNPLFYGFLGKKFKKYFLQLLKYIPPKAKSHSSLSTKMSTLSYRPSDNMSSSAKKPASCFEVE

[2] = molecular target: T2, Type-1 angiotensin II receptor (Homo sapiens, UniProt P30556)
T2 sequence (P30556 whole entry): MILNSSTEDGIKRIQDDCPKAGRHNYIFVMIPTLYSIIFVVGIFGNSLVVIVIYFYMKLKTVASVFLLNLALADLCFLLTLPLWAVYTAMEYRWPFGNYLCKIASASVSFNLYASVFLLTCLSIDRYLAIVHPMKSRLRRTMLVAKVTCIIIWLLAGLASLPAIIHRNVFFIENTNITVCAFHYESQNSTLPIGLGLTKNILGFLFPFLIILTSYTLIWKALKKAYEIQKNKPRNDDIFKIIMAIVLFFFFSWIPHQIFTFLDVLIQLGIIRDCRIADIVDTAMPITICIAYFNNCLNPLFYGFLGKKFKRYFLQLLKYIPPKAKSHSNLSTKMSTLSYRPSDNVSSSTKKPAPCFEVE

[3] = molecular target: T3, Type-1 angiotensin II receptor B (Rattus norvegicus, UniProt P29089)
T3 sequence (P29089 whole entry): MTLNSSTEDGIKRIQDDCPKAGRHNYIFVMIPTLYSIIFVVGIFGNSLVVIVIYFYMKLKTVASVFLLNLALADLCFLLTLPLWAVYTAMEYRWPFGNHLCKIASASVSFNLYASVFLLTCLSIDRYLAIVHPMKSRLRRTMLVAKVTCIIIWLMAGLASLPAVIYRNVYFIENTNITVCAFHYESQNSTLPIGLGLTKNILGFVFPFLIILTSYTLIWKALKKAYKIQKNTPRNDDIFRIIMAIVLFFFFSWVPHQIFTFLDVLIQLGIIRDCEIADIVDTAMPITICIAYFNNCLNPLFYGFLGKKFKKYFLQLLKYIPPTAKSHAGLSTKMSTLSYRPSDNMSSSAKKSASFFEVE

[4] = molecular target: T4, Type-2 angiotensin II receptor (Rattus norvegicus, UniProt P35351)
T4 sequence (P35351 whole entry): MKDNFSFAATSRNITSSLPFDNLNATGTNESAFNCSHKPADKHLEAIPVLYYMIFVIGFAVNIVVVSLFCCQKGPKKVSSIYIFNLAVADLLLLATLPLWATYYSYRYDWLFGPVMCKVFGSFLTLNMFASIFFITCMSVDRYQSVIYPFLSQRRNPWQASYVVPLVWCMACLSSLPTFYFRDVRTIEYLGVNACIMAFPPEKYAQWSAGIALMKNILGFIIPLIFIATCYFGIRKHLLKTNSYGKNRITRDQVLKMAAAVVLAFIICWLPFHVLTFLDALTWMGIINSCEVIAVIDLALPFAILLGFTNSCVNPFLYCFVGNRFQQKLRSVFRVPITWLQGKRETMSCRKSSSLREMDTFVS

Row | Compound | Ki [1] [nM] | Ki [2] [nM] | Ki [3] [nM] | Ki [4] [nM]
1 | CCc1nn(Cc2ccc(-c3ccccc3-c3nnn[nH]3)cc2)c(=NC(=O)C2=C(C(=O)O)CCC2)s1 [KRH-594] | 1.02 | 1.24 | 0.67 | 9360
2 | CCCCc1nc(Cl)c(C(=O)O)n1Cc1ccc(-c2ccccc2-c2nn[nH]n2)cc1 [2-Butyl-5-chloro-3-[2'-(1H-tetrazol-5-yl)-biphenyl-4-ylmethyl]-3H-imidazole-4-carboxylic acid] | 0.57 |  |  | > 10000
3 | CC[C@H](C)[C@H](NC(=O)[C@@H]1CCCN1C(=O)[C@H](Cc1c[nH]cn1)NC(=O)[C@H](CCCCNC(=O)[C@H](CCCN=C(N)N)NC(=O)OCc1ccccc1)NC(=O)[C@H](Cc1ccc(O)cc1)NC(=O)c1cccnc1)C(=O)O [NSC_123794] (Nicotinoyl-YK([Arg-Cbz])HPI-OH) |  |  |  | 0.37
4 | CCOc1nc2cccc(C(=O)O)c2n1Cc1ccc(-c2ccccc2-c2nnn[nH]2)cc1 | 0.12 | 0.17 | 0.12 | > 10000
